Non-standard residues stand in square brackets, D forms with d. hArg = N=C(N)NCCCC[C@H](N)C(=O)O; Cit = NC(=O)NCCC[C@H](N)C(=O)O; Orn = NCCC[C@H](N)C(=O)O
System: murine E^k MHC class II allele
Assay: simultaneous assay, E^k allele (CH27 APC, TPc9.1 T hybridoma, THMCC82-103 or PGCC81-104)
Assay type: cell-based
Settings: for activity in simultaneous assay on E^k, in words: Tables 2 and 18
How it was run: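 Read-out is [3H]TdR incorporation into HT-2 indicator cells exposed to supernatant from a 24 h primary culture. That culture combined mitomycin C-treated APC (5×10^6 cells/mL, 0.025 mg/mL mitomycin C, 20 min, 37° C), peptide, effector compound and T hybridoma, all added at once.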

[1] = Table 13, AE peptide 1 μM (fourth value), supernatant 1:4
[2] = Table 13, AE peptide 4 μM (third value), supernatant 1:4
[3] = Table 13, AE peptide 16 μM (second value), supernatant 1:4
[4] = Table 13, AE peptide 64 μM (first value), supernatant 1:4
[5] = Table 14, AE peptide 64 μM, supernatant 1:4
[6] = Table 10, AE peptide 64 μM, supernatant 1:2 (first value)
[7] = Table 10, AE peptide 64 μM, supernatant 1:4 (second value)
[8] = Table 15, AE peptide 16 μM, supernatant 1:4
[9] = Table 2, AE peptide 64 μM, 0.05 μM PGCC81-104, supernatant 1:2
[10] = Table 11, AE peptide 64 μM, supernatant 1:4
[11] = Table 5, AE peptide 64 μM, supernatant 1:4, normalized to E^d by a factor of 10
[12] = Table 16, AE peptide 4 μM, supernatant 1:8
[13] = Table 6, AE peptide 64 μM, supernatant 1:4, reduced by a factor of 5
[14] = Table 7, AE peptide 64 μM, supernatant 1:4, normalized by a factor of 5
[15] = Table 17, AE peptide 64 μM, supernatant 1:4
[16] = Table 18, AE peptide 64 μM, supernatant 1:4
[17] = Table 9, AE peptide 64 μM, supernatant 1:4, normalized by a factor of 5
[18] = Table 1, AE peptide 16 μM (second value), 0.075 μM THMCC82-103, supernatant 1:2
[19] = Table 1, AE peptide 64 μM (first value), 0.075 μM THMCC82-103, supernatant 1:2
[20] = Table 4, AE109 homolog 64 μM, supernatant 1:2

Ac- (mL) RMKLPK-NH2 [AE174]
Times Baseline Response, E^k [1]: 1.6 | Times Baseline Response, E^k [2]: 3.1 | Times Baseline Response, E^k [3]: 9.8 | Times Baseline Response, E^k [4]: 35.1 | Times Baseline Response, E^k [5]: 34.3

Ac-ARMKLPKSAK-NH2 [AE120]
Times Baseline Response, E^k [6]: 36.8 | Times Baseline Response, E^k [7]: 34.9 | Times Baseline Response, E^k [8]: 4.8

Ac-ARMKNPK-NH2 [AE345]
Times Baseline Response, E^k [8]: 4.8

Ac-ARNKLPK-NH2 [AE344]
Times Baseline Response, E^k [8]: 2.5

Ac-ARNKNPF-NH2 [AE347]
Times Baseline Response, E^k [8]: 2.8

Ac-ARNKNPK-NH2 [AE346]
Times Baseline Response, E^k [8]: 1.8

Ac-DSLRMKLPKSAK-NH2 [AE154]
Times Baseline Response, E^k [9]: 2.2

Ac-L r MKLPK-NH2 [AE161]
Times Baseline Response, E^k [10]: 1.1

Ac-LDSLRMKLPKSAK-NH2 [AE153]
Times Baseline Response, E^k [9]: 1.4

Ac-LQLDSLRMKLPKSAK-NH2 [AE151]
Times Baseline Response, E^k [9]: 0.6 | activity in simultaneous assay on E^k, in words: inhibition

Ac-LR (mL) KLPK-NH2 [AE302]
Times Baseline Response, E^k [5]: 26.1

Ac-LR (mL) KYPK-NH2 [AE303]
Times Baseline Response, E^k [5]: 25.3

Ac-LR (mL) KYPk-NH2 [AE305]
Times Baseline Response, E^k [5]: 26.8

Ac-LR (mL) KyPK-NH2 [AE304]
Times Baseline Response, E^k [5]: 13.4

Ac-LR (mL) KyPk-NH2 [AE306]
Times Baseline Response, E^k [5]: 13.7

Ac-LR HArg KLPK-NH2 [AE197]
Times Baseline Response, E^k [11]: 39.9 | Times Baseline Response, E^k [12]: 1.7

Ac-LR L KLPK-NH2 (Ac-LRLKLPK-NH2; not fully specified; printed as Ac-LR L KLPK-NH2) [AE206]
Times Baseline Response, E^k [11]: 33.9 | Times Baseline Response, E^k [5]: 53.5 | Times Baseline Response, E^k [8]: 35.3 | Times Baseline Response, E^k [12]: 1.3

Ac-LR N KLPK-NH2 (Ac-LRNKLPK-NH2) [AE202]
Times Baseline Response, E^k [11]: 9.3 | Times Baseline Response, E^k [8]: 5.8

Ac-LR m KLPK-NH2 [AE162]
Times Baseline Response, E^k [10]: 1.3

Ac-LRLK HArg PK-NH2 [AE341]
Times Baseline Response, E^k [8]: 42.4

Ac-LRLKWPK-NH2 [AE309]
Times Baseline Response, E^k [5]: 48.2 | Times Baseline Response, E^k [8]: 38.0 | Times Baseline Response, E^k [12]: 1.8

Ac-LRLKYPK-NH2 [AE301]
Times Baseline Response, E^k [5]: 59.9 | Times Baseline Response, E^k [8]: 46.6 | Times Baseline Response, E^k [12]: 15.5

Ac-LRLKYPk-NH2 [AE307]
Times Baseline Response, E^k [5]: 56.4

Ac-LRLKyPK-NH2 [AE308]
Times Baseline Response, E^k [5]: 45.5

Ac-LRM M LPK-NH2 (Ac-LRMMLPK-NH2) [AE220]
Times Baseline Response, E^k [13]: 12.5 | Times Baseline Response, E^k [12]: 1.1

Ac-LRM k LPK-NH2 [AE163]
Times Baseline Response, E^k [10]: 1.1

Ac-LRMK (mL) PK-NH2 [AE175]
Times Baseline Response, E^k [1]: 2.8 | Times Baseline Response, E^k [2]: 6.5 | Times Baseline Response, E^k [3]: 28.5 | Times Baseline Response, E^k [4]: 59.0 | Times Baseline Response, E^k [5]: 58.0

Ac-LRMK Cit PK-NH2 (Ac-LRMK[Cit]PK-NH2; SMILES CSCC[C@H](NC(=O)[C@H](CCCNC(=N)N)NC(=O)[C@H](CC(C)C)NC(C)=O)C(=O)N[C@@H](CCCCN)C(=O)N[C@@H](CCCNC(N)=O)C(=O)N1CCC[C@H]1C(=O)N[C@@H](CCCCN)C(N)=O) [AE226]
Times Baseline Response, E^k [14]: 9.0

Ac-LRMK D PK-NH2 (Ac-LRMKDPK-NH2) [AE230]
Times Baseline Response, E^k [14]: 1.1

Ac-LRMK E PK-NH2 (Ac-LRMKEPK-NH2) [AE231]
Times Baseline Response, E^k [14]: 1.2

Ac-LRMK F PK-NH2 (Ac-LRMKFPK-NH2) [AE234]
Times Baseline Response, E^k [14]: 16.6

Ac-LRMK H PK-NH2 (Ac-LRMKHPK-NH2) [AE228]
Times Baseline Response, E^k [14]: 20.3

Ac-LRMK HArg PK-NH2 (Ac-LRMK[hArg]PK-NH2; SMILES CSCC[C@H](NC(=O)[C@H](CCCNC(=N)N)NC(=O)[C@H](CC(C)C)NC(C)=O)C(=O)N[C@@H](CCCCN)C(=O)N[C@@H](CCCCNC(=N)N)C(=O)N1CCC[C@H]1C(=O)N[C@@H](CCCCN)C(N)=O) [AE227]
Times Baseline Response, E^k [14]: 20.5 | Times Baseline Response, E^k [8]: 45.6

Ac-LRMK K PK-NH2 (Ac-LRMKKPK-NH2) [AE229]
Times Baseline Response, E^k [14]: 16.2

Ac-LRMK M PK-NH2 (Ac-LRMKMPK-NH2) [AE236]
Times Baseline Response, E^k [14]: 16.9

Ac-LRMK N PK-NH2 (Ac-LRMKNPK-NH2) [AE232]
Times Baseline Response, E^k [14]: 8.9 | Times Baseline Response, E^k [8]: 15.5

Ac-LRMK Q PK-NH2 (Ac-LRMKQPK-NH2) [AE233]
Times Baseline Response, E^k [14]: 17.0

Ac-LRMK Y PK-NH2 (Ac-LRMKYPK-NH2; not fully specified; printed as Ac-LRMK Y PK-NH2) [AE235]
Times Baseline Response, E^k [14]: 21.8 | Times Baseline Response, E^k [5]: 56.6 | Times Baseline Response, E^k [8]: 47.7 | Times Baseline Response, E^k [12]: 8.4 | Times Baseline Response, E^k [15]: 26.8 | Times Baseline Response, E^k [16]: 56.6

Ac-LRMK l PK-NH2 [AE164]
Times Baseline Response, E^k [10]: 3.8 | Times Baseline Response, E^k [5]: 43.9

Ac-LRMKL p K-NH2 [AE165]
Times Baseline Response, E^k [10]: 3.6

Ac-LRMKLP F-NH2 (Ac-LRMKLPF-NH2) [AE248]
Times Baseline Response, E^k [17]: 16.3 | Times Baseline Response, E^k [8]: 42.6

Ac-LRMKLP N-NH2 (Ac-LRMKLPN-NH2) [AE246]
Times Baseline Response, E^k [17]: 16.4 | Times Baseline Response, E^k [12]: 1.0

Ac-LRMKLP k-NH2 [AE166]
Times Baseline Response, E^k [10]: 3.4 | Times Baseline Response, E^k [5]: 40.4

Ac-LRMKLPK-NH2 [AE114]
Times Baseline Response, E^k [18]: 3.9 | Times Baseline Response, E^k [19]: 15.9 | Times Baseline Response, Ek (Table 3, AE peptide 64 μM, supernatant 1:4, values reduced relative to E^d by a factor of 10): 26.9 | Times Baseline Response, E^k [11]: 26.9 | Times Baseline Response, E^k [13]: 10.7 | Times Baseline Response, E^k [14]: 10.7 | Times Baseline Response, E^k [17]: 13.2 | Times Baseline Response, E^k [10]: 5.2 | Times Baseline Response, E^k (Table 12, AE peptide 1 μM (fourth value), supernatant 1:4): 2.1 | Times Baseline Response, E^k (Table 12, AE peptide 4 μM (third value), supernatant 1:4): 4.9 | Times Baseline Response, E^k (Table 12, AE peptide 16 μM (second value), supernatant 1:4): 19.3 | Times Baseline Response, E^k (Table 12, AE peptide 64 μM (first value), supernatant 1:4): 51.5 | Times Baseline Response, E^k [1]: 2.1 | Times Baseline Response, E^k [2]: 4.9 | Times Baseline Response, E^k [3]: 19.3 | Times Baseline Response, E^k [4]: 51.5 | Times Baseline Response, E^k [5]: 40.3 | Times Baseline Response, E^k [8]: 18.2 | Times Baseline Response, E^k [12]: 1.2 | Times Baseline Response, E^k [15]: 2.8 | Times Baseline Response, E^k [16]: 40.3

Ac-LRMKLPKPPK-NH2 [AE168]
Times Baseline Response, E^k [19]: 4.7, n.d.

Ac-LRMKLPKPPP-NH2 [AE167]
Times Baseline Response, E^k [19]: 3.4, n.d.

Ac-LRMKLPKSAK-NH2 [AE110]
Times Baseline Response, E^k [18]: 2.1 | Times Baseline Response, E^k [19]: 7.6 | Times Baseline Response, E^k [9]: 19.1

Ac-LRMKLP[Cit]-NH2 [AE241]
Times Baseline Response, E^k [17]: 12.2 | Times Baseline Response, E^k [12]: 1.0

Ac-LRMK[Orn]PK-NH2 [AE225]
Times Baseline Response, E^k [14]: 13.9

Ac-LRNKNPF-NH2 [AE348]
Times Baseline Response, E^k [8]: 6.3

Ac-LRNKNPK-NH2 [AE349]
Times Baseline Response, E^k [8]: 6.1

Ac-LR[Orn]KLPK-NH2 [AE195]
Times Baseline Response, E^k [11]: 12.1 | Times Baseline Response, E^k [8]: 19.8

Ac-L[Cit]MKNPK-NH2 [AE342]
Times Baseline Response, E^k [8]: 5.4

Ac-L[Cit]NKLPK-NH2 [AE343]
Times Baseline Response, E^k [8]: 2.9

Ac-NLQLDSLRMKLPKSAK-NH2 [AE150]
Times Baseline Response, E^k [9]: 0.8

Ac-QLDSLRMKLPKSAK-NH2 [AE152]
Times Baseline Response, E^k [9]: 0.4 | activity in simultaneous assay on E^k, in words: inhibition

Ac-SLRMKLPKSAK-NH2 [AE155]
Times Baseline Response, E^k [9]: 8.4

Ac-Y D MKLPKSAK-NH2 [AE135]
Times Baseline Response, E^k [20]: 1.0

Ac-Y E MKLPKSAK-NH2 [AE136]
Times Baseline Response, E^k [20]: 0.7

Ac-Y F MKLPKSAK-NH2 [AE139]
Times Baseline Response, E^k [20]: 1.5

Ac-Y H MKLPKSAK-NH2 [AE133]
Times Baseline Response, E^k [20]: 0.8

Ac-Y K MKLPKSAK-NH2 [AE134]
Times Baseline Response, E^k [20]: 0.9 | Times Baseline Response, E^k [12]: 1.3

Ac-Y L MKLPKSAK-NH2 [AE142]
Times Baseline Response, E^k [20]: 1.0

Ac-Y M MKLPKSAK-NH2 [AE141]
Times Baseline Response, E^k [20]: 1.3

Ac-Y N MKLPKSAK-NH2 [AE137]
Times Baseline Response, E^k [20]: 0.7

Ac-Y Q MKLPKSAK-NH2 [AE138]
Times Baseline Response, E^k [20]: 0.8

Ac-Y Y MKLPKSAK-NH2 [AE140]
Times Baseline Response, E^k [20]: 0.9

Ac-YAMKLPKSAK-NH2 [AE121]
Times Baseline Response, E^k [20]: 1.0 | Times Baseline Response, E^k [6]: 21.6 | Times Baseline Response, E^k [7]: 19.7

Ac-YRM-NH2 [AE118]
Times Baseline Response, E^k [18]: 3.0 | Times Baseline Response, E^k [19]: 5.6

Ac-YRMK-NH2 [AE117]
Times Baseline Response, E^k [18]: 10.6 | Times Baseline Response, E^k [19]: 14.6

— US6835382B2, “Ii peptide therapeutics to enhance antigen presentation” (University of Massachusetts, priority 1996, dated 2004)
